Literature values in PubChem BioAssay AID1259409 (Chemical Carcinogenesis Research Information System (CCRIS), 2018).

Test system: rodent chemically induced tumor inhibition, incidence and multiplicity
Experiment: CCRIS tumor inhibitor studies
Conditions: 937-40-6, Dose [Inhibitor]: 0, Route [Inhibitor]: ORAL, Species: RAT, Promoter: NONE USED

Q: What does the source list for O=c1oc2c(O)c(O)cc3c(=O)oc4c(O)c(O)cc1c4c23?
A: tumour outcome (control, treated, inhibition, significance) (Carcinogen: N-NITROSOBENZYLMETHYLAMINE, 1.2 UMOL/G IN DIET FOR DURATION OF STUDY BEGINNING 2 WK PRIOR TO CARCINOGEN TREATMENT (STUDY DURATION: 20 WK), Strain/Sex: F344/MALE, Target Tissue: Type of Lesion: ESOPHAGUS: TUMORS, Dose [Carcinogen]: 0.5 MG/KG IN 0.1 ML OF DMSO 1/WK FOR 18 WK): 15/15 (100%), 14/15 (93%), 7%, not significant; tumour outcome (control, treated, inhibition, significance) (Carcinogen: N-NITROSOBENZYLMETHYLAMINE, 1.2 UMOL/G IN DIET FOR DURATION OF STUDY BEGINNING 2 WK PRIOR TO CARCINOGEN TREATMENT (STUDY DURATION: 20 WK), Strain/Sex: F344/MALE, Target Tissue: Type of Lesion: ESOPHAGUS: TUMORS, Dose [Carcinogen]: 1.25 MG/KG IN 0.1 ML OF DMSO 1/WK FOR 18 WK): 15/15 (100%), 15/15 (100%), 0%, not significant; tumour outcome (control, treated, inhibition, significance) (Carcinogen: N-NITROSOBENZYLMETHYLAMINE, 1.2 UMOL/G IN DIET FOR DURATION OF STUDY BEGINNING 2 WK PRIOR TO CARCINOGEN TREATMENT (STUDY DURATION: 27 WK), Strain/Sex: F344/MALE, Target Tissue: Type of Lesion: ESOPHAGUS: TUMORS, Dose [Carcinogen]: 0.5 MG/KG IN 0.1 ML OF DMSO 1/WK FOR 18 WK): 15/15 (100%), 15/15 (100%), 0%, not significant; tumour outcome (control, treated, inhibition, significance) (Carcinogen: N-NITROSOBENZYLMETHYLAMINE, 1.2 UMOL/G IN DIET FOR DURATION OF STUDY BEGINNING 2 WK PRIOR TO CARCINOGEN TREATMENT (STUDY DURATION: 27 WK), Strain/Sex: F344/MALE, Target Tissue: Type of Lesion: ESOPHAGUS: TUMORS, Dose [Carcinogen]: 1.25 MG/KG IN 0.1 ML OF DMSO 1/WK FOR 18 WK): 15/15 (100%), 15/15 (100%), 0%, not significant; tumour outcome (control, treated, inhibition, significance) (Carcinogen: N-NITROSOBENZYLMETHYLAMINE, 4 G/KG IN DIET BEGINNING 2 WK PRIOR TO FIRST CARCINOGEN DOSE (STUDY DURATION: 20 WK), Strain/Sex: F-344/MALE, Target Tissue: Type of Lesion: ESOPHAGUS: TUMOR, Dose [Carcinogen]: 0.5, 1.25 MG/KG 1/WK FOR 18 WK): 15/15 (100%), 12/15 (80%), 20%, not calculated (low dose carcinogen); 15/15 (100; tumour outcome (control, treated, inhibition, significance) (Carcinogen: N-NITROSOBENZYLMETHYLAMINE, 4 G/KG IN DIET BEGINNING 2 WK PRIOR TO FIRST CARCINOGEN DOSE (STUDY DURATION: 27 WK), Strain/Sex: F-344/MALE, Target Tissue: Type of Lesion: ESOPHAGUS: TUMOR, Dose [Carcinogen]: 0.5, 1.25 MG/KG 1/WK FOR 18 WK): 15/15 (100%), 15/15 (100%), 0%, not calculated (low dose carcinogen); 15/15 (100; tumour outcome (control, treated, inhibition, significance) (Carcinogen: N-NITROSOBENZYLMETHYLAMINE, 12 UMOL/G IN DIET FOR DURATION OF STUDY BEGINNING 2 WK PRIOR TO CARCINOGEN TREATMENT (STUDY DURATION: 20 WK), Strain/Sex: F344/MALE, Target Tissue: Type of Lesion: ESOPHAGUS: TUMORS, Dose [Carcinogen]: 0.5 MG/KG IN 0.1 ML OF DMSO 1/WK FOR 18 WK): 15/15 (100%), 12/15 (80%), 20%, not significant; tumour outcome (control, treated, inhibition, significance) (Carcinogen: N-NITROSOBENZYLMETHYLAMINE, 12 UMOL/G IN DIET FOR DURATION OF STUDY BEGINNING 2 WK PRIOR TO CARCINOGEN TREATMENT (STUDY DURATION: 20 WK), Strain/Sex: F344/MALE, Target Tissue: Type of Lesion: ESOPHAGUS: TUMORS, Dose [Carcinogen]: 1.25 MG/KG IN 0.1 ML OF DMSO 1/WK FOR 18 WK): 15/15 (100%), 15/15 (100%), 0%, not significant; tumour outcome (control, treated, inhibition, significance) (Carcinogen: N-NITROSOBENZYLMETHYLAMINE, 12 UMOL/G IN DIET FOR DURATION OF STUDY BEGINNING 2 WK PRIOR TO CARCINOGEN TREATMENT (STUDY DURATION: 27 WK), Strain/Sex: F344/MALE, Target Tissue: Type of Lesion: ESOPHAGUS: TUMORS, Dose [Carcinogen]: 0.5 MG/KG IN 0.1 ML OF DMSO 1/WK FOR 18 WK): 15/15 (100%), 15/15 (100%), 0%, not significant; tumour outcome (control, treated, inhibition, significance) (Carcinogen: N-NITROSOBENZYLMETHYLAMINE, 12 UMOL/G IN DIET FOR DURATION OF STUDY BEGINNING 2 WK PRIOR TO CARCINOGEN TREATMENT (STUDY DURATION: 27 WK), Strain/Sex: F344/MALE, Target Tissue: Type of Lesion: ESOPHAGUS: TUMORS, Dose [Carcinogen]: 1.25 MG/KG IN 0.1 ML OF DMSO 1/WK FOR 18 WK): 15/15 (100%), 15/15 (100%), 0%, not significant; tumour outcome (control, treated, inhibition, significance) (Carcinogen: N-NITROSOMETHYLBENZYLAMINE, 400 PPM IN DIET FOR DURATION OF STUDY BEGINNING 1 WK POST CARCINOGEN TREATMENT (STUDY DURATION: 25 WK), Strain/Sex: F344/MALE, Target Tissue: Type of Lesion: ESOPHAGUS: TUMOR, Dose [Carcinogen]: 1 MG/KG 3/WK FOR 5 WK): 15/15 (100%), 14/15 (93%), 7%, not significant; tumour outcome (control, treated, inhibition, significance) (Carcinogen: N-NITROSOMETHYLBENZYLAMINE, 4000 PPM IN DIET FOR DURATION OF STUDY BEGINNING 1 WK POST CARCINOGEN TREATMENT (STUDY DURATION: 25 WK), Strain/Sex: F344/MALE, Target Tissue: Type of Lesion: ESOPHAGUS: TUMOR, Dose [Carcinogen]: 1 MG/KG 3/WK FOR 5 WK): 15/15 (100%), 10/15 (67%), 33%, p<0.05
